“And” between values parts separate entries of the source, which are not always exact repeats. Equal values may be shown once. “Also recorded” adds a separate entry of the source. Read-outs that look alike come from different tables or passages of the source.
How the values were obtained:
mature osteoblasts = assay: In vitro bone formation assay (calcium deposition into bone nodules); type: cell-based, mouse; settings: for Effect on bone formation activity of mature osteoblasts, in words / Calcium deposition, Mean ± SD / Calcium deposition, replicates 1-6 / Calcium deposition, replicates 1-4 / Calcium deposition, replicates 1-8 / Combined results on bone formation activity of mature osteoblasts (calcium released), Mean ± SD: LA number = ng/ml lanthanum; for Effect on bone formation activity of mature osteoblasts, in words: lanthanum (III) / lanthanum (III) ion = all concentrations tested, 100 to 15,000 ng/ml, 17-estradiol 10^−10M; for Calcium deposition, Mean ± SD / Calcium deposition, replicates 1-6 / Calcium deposition, replicates 1-4 / Calcium deposition, replicates 1-8: calcium released from bone nodules after HCl extraction; for Calcium deposition, Mean ± SD / Calcium deposition, replicates 1-6 / Calcium deposition, replicates 1-4 / Calcium deposition, replicates 1-8 / Combined results on bone formation activity of mature osteoblasts (calcium released), Mean ± SD: Control = Baseline+10^−10M 17β-estradiol; for Combined results on bone formation activity of mature osteoblasts (calcium released), Mean ± SD: tables 13 and 14 combined, number 14; for Bone formation: significance of activation/inhibition vs baseline
Protocol: The activity of mature osteoblasts can be determined by quantifying their ability to form mineralized bone matrix. This is done by demineralizing the formed bone matrix, and determining the amount of calcium released. Thus, this culture system fulfills requirements of an in vitro model useful for studying the bone formation activity of mature osteoblasts. […] At the end of the culture, the amount of calcium deposited during the culture period was determined, and the amount of bone formation (calcium deposition) calculated. […] Extracts of 50 μl were complexed with 1 ml determined o-cresol-phthalein-complexon. The colorimetric reaction was determined at 570 nm in a spectrophotometer. Absolute calcium concentrations were determined by comparison with a calibrated standard provided by the vendor. In this study, the effect of lanthanum carbonate on bone formation was tested. […] The amount of bone formation was determined by measuring the amount of calcium deposited into bone nodules formed by mature osteoblasts. The results are shown as the amount of calcium released (mmol/L) from the bone nodules after HCl extraction. The baseline values are too low to show the results using relative amounts as was done in the other assays.

[1] = test system: osteoclast precursors in mouse bone marrow; settings: for Relative TRAP 5b activities, Mean ± SD: relative to mean of baseline group; for Combined results on osteoclast differentiation (relative TRAP 5b activity), Mean ± SD: tables 4-6 combined, number 18 (LA 100) or 12; for Effect on osteoclast differentiation, in words: vs baseline with 1,25-dihydroxyvitamin D3; for Osteoclast differentiation: significance of activation/inhibition vs baseline
Excerpt: A method known as mouse bone marrow culture system is the one most widely used to study osteoclast differentiation. Originally, this method was developed by Takahashi et al. (1988a). Osteoclast precursors in mouse bone marrow can be induced to form multinucleated osteoclast-like cells (MNC) in the presence of either an active metabolite of vitamin D3 (1,25(OH)2D3) or parathyroid hormone (PTH). […] They form pits on bone or dentine slices (Takahashi et al. 1988a, Hattersley and Chambers 1989, Shinar et al. 1990); they express high levels of tartrate-resistant acid phosphatase (TRAP) and calcitonin receptors (Takahashi et al. 1988b, Shinar et al. 1990); and they respond to calcitonin (Takahashi et al. 1988a) and prostaglandin E2 (Collins and Chambers 1992). Thus, the method is an ideal one with which to study both stimulators and inhibitors of osteoclast differentiation.
In the original culture system, the osteoclast formation was determined after an 8-day culture. In bone marrow, both non-adherent osteoclast precursors and stromal cells are present, the latter of which are needed to support osteoclast formation. The number of osteoclasts formed is generally determined by counting the number of TRAP-positive MNC containing at least three nuclei (Takahashi et al. 1988a).
We have modified the original assay so that we culture 1×10^6 mouse marrow cells/ml for 6 days. […] Instead of counting of the number of differentiated osteoclasts formed, we measured the amount of TRAP liberated from osteoclasts into the culture medium using a fast, simple TRAP immunoassay (Halleen et al. 1999) presentation in the Annual Meeting of the American Society for Bone and Mineral Research, Sep. 30-Oct. 4, 1999, in St. Louis, Mo., USA.
8-10-week old mice were killed with CO2. Tibia and femora were dissected free from adhering soft tissues. The bone ends were cut off with a scalpel and the marrow was flushed with α-Minimal Essential Medium (α-MEM, Gibco BRL, Paisley, UK) supplemented with 100 IU/ml penicillin and 100 μg/ml streptomycin. A 10 ml syringe with a 27 gauge needle was used for flushing. Cells were centrifuged at 600×G for 10 minutes and the cell pellet was resuspended in -MEM containing 10% fetal calf serum. Cells were allowed to attach to plastic for 2 h at 37° C. in a 5% CO2 incubator to allow removal of monocytes and macrophages. Nonadherent cells were duly removed, and the […] bone marrow cells were cultured in 24-well plates (1×10^6 cells/well=1 ml) for 6 days. Half of the media were changed at day 3 and the treatments replaced. At the end of the culture, the plates were fixed with 2% paraformaldehyde in PBS for 20 minutes. Osteoclast formation was determined by measuring TRAP activity from the culture media using the novel TRAP immunoassay (vide infra), where we use a polyclonal TRAP antiserum prepared in rabbits against purified human bone TRAP. The TRAP antibody was bound to anti-rabbit IgG coated microtiter wells (Gibco BRL, Paisley, UK), and medium TRAP was then bound to the antibody. The activity of bound TRAP was measured in sodium acetate buffer using pNPP as substrate.
In this study, the effect of the lanthanum (III) ion on osteoclast differentiation in the presence of 1,25-dihydroxyvitamin D3 was tested. The following sample groups were included: • Baseline (including vehicle) • Control (Baseline without 1,25-dihydroxyvitamin D3) • Baseline+100 ng/ml lanthanum • Baseline+500 ng/ml lanthanum • Baseline+1000 ng/ml lanthanum • Baseline+5000 ng/ml lanthanum • Baseline+15000 ng/ml lanthanum
Six replicates were included in each group, and the test was performed twice. Baseline without 1,25-dihydroxyvitamin D3 was used as a control to show the test system allows inhibition of osteoclast differentiation to be detected.

[2] = preliminary bone formation assay
[3] = first osteoclast differentiation assay, with 1,25-dihydroxyvitamin D3, 6 days, LA number = ng/ml lanthanum
[4] = second osteoclast differentiation assay, with 1,25-dihydroxyvitamin D3, 6 days, LA number = ng/ml lanthanum

O.O.O.O.O=C([O-])[O-].O=C([O-])[O-].O=C([O-])[O-].[La+3].[La+3] [LA 100, lanthanum carbonate tetrahydrate]
Effect on bone formation activity of mature osteoblasts, in words (mature osteoblasts): activate both bone formation and osteoblast differentiation
Calcium deposition, Mean ± SD (mature osteoblasts; first bone formation assay): 0.11 ± 0.11 mmol/L
Calcium deposition, replicates 1-6 (mature osteoblasts; first bone formation assay): 0.04 mmol/L and 0.17 mmol/L and 0.01 mmol/L and 0.27 mmol/L and 0 mmol/L and 0.14 mmol/L
Calcium deposition, Mean ± SD (mature osteoblasts; [2]): 0.00 ± 0.00 mmol/L
Calcium deposition, replicates 1-4 (mature osteoblasts; [2]): 0 mmol/L
Calcium deposition, Mean ± SD (mature osteoblasts; second bone formation assay): 0.08 ± 0.11 mmol/L
Calcium deposition, replicates 1-8 (mature osteoblasts; second bone formation assay): 0 mmol/L (4×) and 0.28 mmol/L and 0.14 mmol/L
Combined results on bone formation activity of mature osteoblasts (calcium released), Mean ± SD (mature osteoblasts): 0.09 ± 0.10 mmol/L
Relative TRAP 5b activities, Mean ± SD [1, 3]: 0.87 ± 0.33
Relative TRAP 5b activities, Mean ± SD [1, 4]: 0.54 ± 0.15(**)
Combined results on osteoclast differentiation (relative TRAP 5b activity), Mean ± SD ([1]; LA number = ng/ml lanthanum): 0.70 ± 0.27 (**)
Relative TRAP 5b activities, Mean ± SD ([1]; third osteoclast differentiation assay with LA 100 (100 ng/ml lanthanum)): 0.69 ± 0.21(*)

O.O.O.O.O=C([O-])[O-].O=C([O-])[O-].O=C([O-])[O-].[La+3].[La+3] [LA 1000, lanthanum carbonate tetrahydrate]
Effect on bone formation activity of mature osteoblasts, in words (mature osteoblasts): stimulate bone formation
Calcium deposition, Mean ± SD (mature osteoblasts; first bone formation assay): 1.29 ± 0.28 mmol/L
Calcium deposition, replicates 1-6 (mature osteoblasts; first bone formation assay): 0.95 mmol/L and 1.66 mmol/L and 1.47 mmol/L and 1.41 mmol/L and 1.00 mmol/L and 1.25 mmol/L
Calcium deposition, Mean ± SD (mature osteoblasts; [2]): 0.07 ± 0.05 mmol/L
Calcium deposition, replicates 1-4 (mature osteoblasts; [2]): 0.10 mmol/L and 0 mmol/L and 0.11 mmol/L and 0.05 mmol/L
Calcium deposition, Mean ± SD (mature osteoblasts; second bone formation assay): 1.14 ± 0.55(* mmol/L
Calcium deposition, replicates 1-8 (mature osteoblasts; second bone formation assay): 1.76 mmol/L and 0.02 mmol/L and 1.52 mmol/L
Combined results on bone formation activity of mature osteoblasts (calcium released), Mean ± SD (mature osteoblasts): 1.20 ± 0.45 mmol/L
Effect on osteoclast differentiation, in words ([1]; LA number = ng/ml lanthanum): decreases the formation of osteoclasts
Relative TRAP 5b activities, Mean ± SD [1, 3]: 0.60 ± 0.25
Relative TRAP 5b activities, Mean ± SD [1, 4]: 0.69 ± 0.21
Combined results on osteoclast differentiation (relative TRAP 5b activity), Mean ± SD ([1]; LA number = ng/ml lanthanum): 0.65 ± 0.23 (**)

O.O.O.O.O=C([O-])[O-].O=C([O-])[O-].O=C([O-])[O-].[La+3].[La+3] [LA 15000, lanthanum carbonate tetrahydrate]
Effect on bone formation activity of mature osteoblasts, in words (mature osteoblasts): best responses
Calcium deposition, Mean ± SD (mature osteoblasts; first bone formation assay): 1.29 ± 0.21 mmol/L
Calcium deposition, replicates 1-6 (mature osteoblasts; first bone formation assay): 1.46 mmol/L and 1.42 mmol/L and 1.56 mmol/L and 1.11 mmol/L (2×) and 1.08 mmol/L
Calcium deposition, Mean ± SD (mature osteoblasts; [2]): 0.89 ± 0.66 mmol/L
Calcium deposition, replicates 1-4 (mature osteoblasts; [2]): 1.48 mmol/L and 0.16 mmol/L and 0.50 mmol/L and 1.41 mmol/L
Calcium deposition, Mean ± SD (mature osteoblasts; second bone formation assay): 1.40 ± 0.21(* mmol/L
Calcium deposition, replicates 1-8 (mature osteoblasts; second bone formation assay): 1.62 mmol/L and 1.18 mmol/L and 1.21 mmol/L
Combined results on bone formation activity of mature osteoblasts (calcium released), Mean ± SD (mature osteoblasts): 1.35 ± 0.21 mmol/L
Relative TRAP 5b activities, Mean ± SD [1, 3]: 0.36 ± 0.27(*)
Relative TRAP 5b activities, Mean ± SD [1, 4]: 0.25 ± 0.07(***)
Combined results on osteoclast differentiation (relative TRAP 5b activity), Mean ± SD ([1]; LA number = ng/ml lanthanum): 0.30 ± 0.19 (***)

O.O.O.O.O=C([O-])[O-].O=C([O-])[O-].O=C([O-])[O-].[La+3].[La+3] [LA 5000, lanthanum carbonate tetrahydrate]
Effect on bone formation activity of mature osteoblasts, in words (mature osteoblasts): best responses
Calcium deposition, Mean ± SD (mature osteoblasts; first bone formation assay): 1.46 ± 0.10 mmol/L
Calcium deposition, replicates 1-6 (mature osteoblasts; first bone formation assay): 1.31 mmol/L and 1.55 mmol/L and 1.56 mmol/L and 1.52 mmol/L and 1.40 mmol/L and 1.39 mmol/L
Calcium deposition, Mean ± SD (mature osteoblasts; [2]): 1.06 ± 0.66 mmol/L
Calcium deposition, replicates 1-4 (mature osteoblasts; [2]): 0.59 mmol/L and 1.64 mmol/L and 0.39 mmol/L and 1.62 mmol/L
Calcium deposition, Mean ± SD (mature osteoblasts; second bone formation assay): 1.47 ± 0.20(* mmol/L
Calcium deposition, replicates 1-8 (mature osteoblasts; second bone formation assay): 1.08 mmol/L and 1.63 mmol/L and 1.30 mmol/L
Combined results on bone formation activity of mature osteoblasts (calcium released), Mean ± SD (mature osteoblasts): 1.47 ± 0.16 mmol/L
Relative TRAP 5b activities, Mean ± SD [1, 3]: 0.44 ± 0.06(*)
Relative TRAP 5b activities, Mean ± SD [1, 4]: 0.56 ± 0.27(*)
Combined results on osteoclast differentiation (relative TRAP 5b activity), Mean ± SD ([1]; LA number = ng/ml lanthanum): 0.50 ± 0.20 (***)

O.O.O.O.O=C([O-])[O-].O=C([O-])[O-].O=C([O-])[O-].[La+3].[La+3] [LA 500, lanthanum carbonate tetrahydrate]
Effect on bone formation activity of mature osteoblasts, in words (mature osteoblasts): stimulate bone formation
Calcium deposition, Mean ± SD (mature osteoblasts; first bone formation assay): 0.77 ± 0.54 mmol/L
Calcium deposition, replicates 1-6 (mature osteoblasts; first bone formation assay): 0.44 mmol/L and 0.15 mmol/L and 1.32 mmol/L and 0.27 mmol/L and 1.31 mmol/L and 1.10 mmol/L
Calcium deposition, Mean ± SD (mature osteoblasts; [2]): 0.02 ± 0.05 mmol/L
Calcium deposition, replicates 1-4 (mature osteoblasts; [2]): 0 mmol/L (3×) and 0.09 mmol/L
Calcium deposition, Mean ± SD (mature osteoblasts; second bone formation assay): 0.62 ± 0.61 mmol/L
Calcium deposition, replicates 1-8 (mature osteoblasts; second bone formation assay): 0 mmol/L and 0.02 mmol/L and 0.46 mmol/L and 1.17 mmol/L
Combined results on bone formation activity of mature osteoblasts (calcium released), Mean ± SD (mature osteoblasts): 0.68 ± 0.56 mmol/L
Relative TRAP 5b activities, Mean ± SD [1, 3]: 0.71 ± 0.22
Relative TRAP 5b activities, Mean ± SD [1, 4]: 1.07 ± 0.24
Combined results on osteoclast differentiation (relative TRAP 5b activity), Mean ± SD ([1]; LA number = ng/ml lanthanum): 0.89 ± 0.29

O.O.O.O.O=C([O-])[O-].O=C([O-])[O-].O=C([O-])[O-].[La+3].[La+3] [LA, lanthanum carbonate tetrahydrate]
Bone formation (mature osteoblasts; Dose 100 ng/ml): ++ (two characters (++ or −−) a p-value between 0.01 and 0.001)
Bone formation (mature osteoblasts; Dose 500 ng/ml): +++ (three characters (+++ or −−−) a p-value <0.001)
Bone formation (mature osteoblasts; Dose 1000 ng/ml): +++ (three characters (+++ or −−−) a p-value <0.001)
Bone formation (mature osteoblasts; Dose 5000 ng/ml): +++ (three characters (+++ or −−−) a p-value <0.001)
Bone formation (mature osteoblasts; Dose 15000 ng/ml): +++ (three characters (+++ or −−−) a p-value <0.001)
Effect on bone formation activity of mature osteoblasts, in words (mature osteoblasts; listed as lanthanum (III)): Enhanced bone formation
Effect on bone formation activity of mature osteoblasts, in words (mature osteoblasts; listed as lanthanum (III) ion): highly significant activation; also recorded: powerful stimulator of the bone formation activity of mature osteoblasts
Osteoclast differentiation ([1]; Dose 100 ng/ml): − −
Osteoclast differentiation ([1]; Dose 500 ng/ml): 0
Osteoclast differentiation ([1]; Dose 1000 ng/ml): − −
Osteoclast differentiation ([1]; Dose 5000 ng/ml): − − −
Osteoclast differentiation ([1]; Dose 15000 ng/ml): − − −
Effect on osteoclast differentiation, in words ([1]; LA number = ng/ml lanthanum): inhibits osteoclast differentiation
